Our source for the LC50, IC50 and MIC values is ChEMBL document CHEMBL1151109, “Interference Competition Among Natural Fungal Competitors: an Antifungal Metabolite from the Coprophilous Fungus Preussia fleischhakii” (J Nat Prod, 1988).

For orientation: LC50 means the concentration that kills 50% of the test population. The term IC50 denotes the concentration at which inhibition is half-maximal.

In brackets after ≈: the same amount, converted by molar mass.

Series [1] can be described thus: Toxicity in brine shrimp. The format is organism-based. As to conditions: artemia, in vivo.
Another series deals with Sordaria fimicola. Briefly: Antifungal activity against Sordaria fimicola NRRL 6460 assessed as hyphal morphological changes. The format is functional, organism-based.
The subject of a further series is Ascobolus. Put plainly: Antifungal activity against sAscobolus furfuraceus NRRL 6459 assessed as hyphal morphological changes. The format is functional, organism-based.

`COc1cc(C)c(Oc2cc(C)cc(O)c2)c(O)c1` [CYPERIN] displayed an LC50 in series [1] of 125 mg/L (≈ 480 µM). The IC50 was 50 mg/L (≈ 192 µM) in the series with Sordaria fimicola and 100 mg/L (≈ 384 µM) in the series on Ascobolus. For the same compound, the MIC in the series with Sordaria fimicola turned out to be 75 mg/L (≈ 288 µM); in the series on Ascobolus, 250 mg/L (≈ 960 µM).
